Measurements as given in patent US9693997B2, “Antiviral compounds” (priority 2013, dated 2017).

What was measured:
[1] = test system: Pseudotyped HCV GT1b particles (HCVpp), entry into Huh7-high CD81 cells; assay: microbe, parasite or virus in culture; format: cell-based, HCV GT1b Con1 strain; settings: Hepatitis C virus, GT1B, 72 h, read-out: HCVpp GT-1b (EC50, μM)
[2] = test system: pseudotyped VSV G particles (VSVpp) in Huh7-high CD81 cells; assay: microbe, parasite or virus in culture; format: cell-based, vesicular stomatitis virus; settings: Vesicular stomatitis virus, 72 h, read-out: VSVpp (EC50, μM)

SMILES	EC50 [1]	EC50 [2]
Nc1nc(Nc2ccc(-c3c(Cl)cccc3Cl)cc2)n[nH]1 [Compound 258]	20.2 µM	26.2 µM
Nc1n[nH]c(Nc2cc(Cl)c(-c3ccc(OC4CCCNC4)cc3)c(Cl)c2)n1 (centres unmarked) [Compound 259]	0.089 µM	4.27 µM
CC(C)(C)OC(=O)N1CC(COc2ccc(-c3c(Cl)cc(Nc4n[nH]c(N)n4)cc3Cl)cc2)C1 [Compound 260, 3-[4′-(5-Amino-1H-[1,2,4]triazol-3-ylamino)-2′,6′-dichloro-biphenyl-4-yloxymethyl]-azetidine-1-carboxylic acid tert-butyl ester]	0.022 µM	17.5 µM
CN(CCOc1ccc(-c2c(Cl)cc(Nc3n[nH]c(N)n3)cc2Cl)cc1)C(=O)OC(C)(C)C [Compound 261, {2-[4′-(5-Amino-1H-[1,2,4]triazol-3-ylamino)-2′,6′-dichloro-biphenyl-4-yloxy]-ethyl}-methyl-carbamic acid tert-butyl ester]	0.033 µM	4.26 µM
Nc1nc(Nc2cc(Cl)c(-c3ccc(OC4CCNCC4)cc3)c(Cl)c2)n[nH]1 [Compound 262, N*3*-[2,6-Dichloro-4′-(piperidin-4-yloxy)-biphenyl-4-yl]-1H-[1,2,4]triazole-3,5-diamine]	0.05 µM	4.87 µM
CNCCOc1ccc(-c2c(Cl)cc(Nc3n[nH]c(N)n3)cc2Cl)cc1 [Compound 263, N*3*-[2,6-Dichloro-4′-(2-methylamino-ethoxy)-biphenyl-4-yl]-1H-[1,2,4]triazole-3,5-diamine]	0.059 µM	3.75 µM
Nc1nc(Nc2cc(Cl)c(-c3ccc(OCCC4CCCN4)cc3)c(Cl)c2)n[nH]1 (centres unmarked) [Compound 264, N*3*-[2,6-Dichloro-4′-(2-pyrrolidin-2-yl-ethoxy)-biphenyl-4-yl]-1H-[1,2,4]triazole-3,5-diamine]	0.048 µM	6.5 µM
CC(C)(C)OC(=O)N1CCCC1CCOc1ccc(-c2c(Cl)cc(Nc3n[nH]c(N)n3)cc2Cl)cc1 (centres unmarked) [Compound 266, 2-{2-[4′-(5-Amino-1H-[1,2,4]triazol-3-ylamino)-2′,6′-dichloro-biphenyl-4-yloxy]-ethyl}-pyrrolidine-1-carboxylic acid tert-butyl ester]	0.103 µM	> 10 µM
CC(C)(C)OC(=O)N1CCC[C@@H]1COc1ccc(-c2c(Cl)cc(Nc3n[nH]c(N)n3)cc2C(F)(F)F)cc1 [Compound 267, (R)-2-[4′-(5-Amino-1H-[1,2,4]triazol-3-ylamino)-2′-chloro-6′-trifluoromethyl-biphenyl-4-yloxymethyl]-pyrrolidine-1-carboxylic acid tert-butyl ester]	0.048 µM	9.62 µM
CC(C)(C)OC(=O)N1CCC(Oc2ccc(-c3c(Cl)cc(Nc4n[nH]c(N)n4)cc3Cl)cc2)CC1 [Compound 268, 4-[4′-(5-Amino-1H-[1,2,4]triazol-3-ylamino)-2′,6′-dichloro-biphenyl-4-yloxy]-piperidine-1-carboxylic acid tert-butyl ester]	0.17 µM	> 10 µM
CN(C)CCOc1ccc(-c2c(Cl)cc(Nc3n[nH]c(N)n3)cc2Cl)cc1 [Compound 269, N*3*-[2,6-Dichloro-4′-(2-dimethylamino-ethoxy)-biphenyl-4-yl]-1H-[1,2,4]triazole-3,5-diamine]	0.122 µM	6.09 µM
Nc1nc(Nc2cc(Cl)c(-c3ccc(OC[C@@H]4CCCN4)cc3)c(C(F)(F)F)c2)n[nH]1 [Compound 270, N*3*-[6-Chloro-4′-((S)-1-pyrrolidin-2-ylmethoxy)-2-trifluoromethyl-biphenyl-4-yl]-1H-[1,2,4]triazole-3,5-diamine]	0.117 µM	33.3 µM
Nc1nc(Nc2cc(Cl)c(-c3ccc(O[C@H]4CCNC4)cc3)c(Cl)c2)n[nH]1 [Compound 271, N*3*-[2,6-Dichloro-4′-((S)-pyrrolidin-3-yloxy)-biphenyl-4-yl]-1H-[1,2,4]triazole-3,5-diamine]	0.12 µM	4.39 µM
Nc1nc(Nc2cc(Cl)c(-c3ccc(OC[C@H]4CCCN4)cc3)c(Cl)c2)n[nH]1 [Compound 272, N*3*-[2,6-Dichloro-4′-((R)-1-pyrrolidin-2-ylmethoxy)-biphenyl-4-yl]-1H-[1,2,4]triazole-3,5-diamine]	0.147 µM	4.49 µM
CC(C)(C)OC(=O)N1CC[C@H](Oc2ccc(-c3c(Cl)cc(Nc4n[nH]c(N)n4)cc3Cl)cc2)C1 [Compound 273, (S)-3-[4′-(5-Amino-1H-[1,2,4]triazol-3-ylamino)-2′,6′-dichloro-biphenyl-4-yloxy]-pyrrolidine-1-carboxylic acid tert-butyl ester]	0.28 µM	> 10 µM
CC1(C)OCC(COc2ccc(-c3c(Cl)cc(Nc4n[nH]c(N)n4)cc3Cl)cc2)O1 (centres unmarked) [Compound 274, N*3*-[2,6-Dichloro-4′-(2,2-dimethyl-[1,3]dioxolan-4-ylmethoxy)-biphenyl-4-yl]-1H-[1,2,4]triazole-3,5-diamine]	0.121 µM	34.1 µM

SMILES	EC50 [1]	EC50 [2]
CC(C)(C)OC(=O)N1CCC[C@@H]1COc1ccc(-c2c(Cl)cc(Nc3n[nH]c(N)n3)cc2Cl)cc1 [Compound 275, (R)-2-[4′-(5-Amino-1H-[1,2,4]triazol-3-ylamino)-2′,6′-dichloro-biphenyl-4-yloxymethyl]-pyrrolidine-1-carboxylic acid tert-butyl ester]	0.285 µM	> 10 µM
CC(C)(C)OC(=O)COc1ccc(-c2c(Cl)cc(Nc3n[nH]c(N)n3)cc2Cl)cc1 [Compound 276, [4′-(5-Amino-1H-[1,2,4]triazol-3-ylamino)-2′,6′-dichloro-biphenyl-4-yloxy]-acetic acid tert-butyl ester]	0.168 µM	> 10 µM
CC(C)(C)OC(=O)N1CCC[C@H]1COc1ccc(-c2c(Cl)cc(Nc3n[nH]c(N)n3)cc2C(F)(F)F)cc1 [Compound 277, (S)-2-[4′-(5-Amino-1H-[1,2,4]triazol-3-ylamino)-2′-chloro-6′-trifluoromethyl-biphenyl-4-yloxymethyl]-pyrrolidine-1-carboxylic acid tert-butyl ester]	0.312 µM	27.9 µM
COCCOc1ccc(-c2c(Cl)cc(Nc3n[nH]c(N)n3)cc2Cl)cc1 [Compound 278, N*3*-[2,6-Dichloro-4′-(2-methoxy-ethoxy)-biphenyl-4-yl]-1H-[1,2,4]triazole-3,5-diamine]	0.264 µM	5.31 µM
CC(C)(C)OC(=O)N1CCC[C@H]1COc1ccc(-c2c(Cl)cc(Nc3n[nH]c(N)n3)cc2Cl)cc1 [Compound 280, (S)-2-[4′-(5-Amino-1H-[1,2,4]triazol-3-ylamino)-2′,6′-dichloro-biphenyl-4-yloxymethyl]-pyrrolidine-1-carboxylic acid tert-butyl ester]	0.401 µM	> 10 µM
Nc1nc(Nc2cc(Cl)c(-c3ccc(OCCN4CCOCC4)cc3)c(Cl)c2)n[nH]1 [Compound 281, N*3*-[2,6-Dichloro-4′-(2-morpholin-4-yl-ethoxy)-biphenyl-4-yl]-1H-[1,2,4]triazole-3,5-diamine]	0.244 µM	23.4 µM
Nc1nc(Nc2cc(Cl)c(-c3ccc(OCC(O)CO)cc3)c(Cl)c2)n[nH]1 (centres unmarked) [Compound 282, 3-[4′-(5-Amino-1H-[1,2,4]triazol-3-ylamino)-2′,6′-dichloro-biphenyl-4-yloxy]-propane-1,2-diol-diamine]	0.213 µM	39.7 µM
Nc1nc(Nc2cc(Cl)c(-c3ccc(OCCCN4CCOCC4)cc3)c(Cl)c2)n[nH]1 [Compound 283, N*3*-[2,6-Dichloro-4′-(3-morpholin-4-yl-propoxy)-biphenyl-4-yl]-1H-[1,2,4]triazole-3,5-diamine]	0.523 µM	> 10 µM
Nc1nc(Nc2cc(Cl)c(-c3ccc(OCc4ccccn4)cc3)c(Cl)c2)n[nH]1 [Compound 284, N*3*-[2,6-Dichloro-4′-(pyridin-2-ylmethoxy)-biphenyl-4-yl]-1H-[1,2,4]triazole-3,5-diamine]	0.576 µM	> 10 µM
Nc1nc(Nc2cc(Cl)c(-c3ccc(OCC(=O)O)cc3)c(Cl)c2)n[nH]1 [Compound 285, [4′-(5-Amino-1H-[1,2,4]triazol-3-ylamino)-2′,6′-dichloro-biphenyl-4-yloxy]-acetic acid]	4.97 µM	> 10 µM
CS(=O)(=O)c1ccc(-c2ccc(Nc3n[nH]c(N)n3)cc2S(F)(F)(F)(F)F)cc1 [Compound 288, N*3*-(4′-Methanesulfonyl-2-pentafluorosulfur-biphenyl-4-yl)-1H-[1,2,4]triazole-3,5-diamine]	1.23 µM	8.93 µM
CS(=O)(=O)Nc1cccc(-c2c(Cl)cc(Nc3n[nH]c(N)n3)cc2C(F)(F)F)c1 [Compound 290, N-(4′-(5-amino-1H-1,2,4-triazol-3-ylamino)-2′-chloro-6′-(trifluoromethyl)biphenyl-3-yl)methanesulfonamide]	0.149 µM	14.4 µM
CNC(=O)c1ccc(-c2c(Cl)cc(Nc3n[nH]c(N)n3)cc2C(F)(F)F)cc1F [Compound 291, 4′-(5-amino-1H-1,2,4-triazol-3-ylamino)-2′-chloro-3-fluoro-N-methyl-6′-(trifluoromethyl)biphenyl-4-carboxamide]	0.325 µM	21.5 µM
CNC(=O)c1cc(-c2c(Cl)cc(Nc3n[nH]c(N)n3)cc2C(F)(F)F)ccc1F [Compound 292, 4′-(5-amino-1H-1,2,4-triazol-3-ylamino)-2′-chloro-4-fluoro-N-methyl-6′-(trifluoromethyl)biphenyl-3-carboxamide]	0.647 µM	29.2 µM
Nc1nc(Nc2cc(Cl)c(-c3ccc(C(=O)NCCO)c(F)c3)c(C(F)(F)F)c2)n[nH]1 [Compound 293, 4′-(5-amino-1H-1,2,4-triazol-3-ylamino)-2′-chloro-3-fluoro-N-(2-hydroxyethyl)-6′-(trifluoromethyl)biphenyl-4-carboxamide]	0.139 µM	15.7 µM
